Common to all, as to format: in vivo
Test [1] deals with Larvae of Spodoptera litura. Description: Larvae of Spodoptera litura, method using artificial feeds. The conditions noted are these: artificial feed, after 7 days. Here is the method: (§1) Unless not mentioned otherwise, the test solutions were prepared as follows:
(§2) Solvent: 3 parts by weight Dimethylformamide
(§3) Emulsifier: 1 part by weight Polyoxyethylene alkyl phenyl ether
(§4) In order to make an appropriate formulation of an active compound, 1 part by weight of the active compound is mixed with the above mentioned amount of solvent and emulsifier and the mixture is diluted with water to a prescribed concentration. Ammonium salt or ammonium salt and penetration enhancer in a dosage of 1000 ppm are added to the desired concentration if necessary.
[A Method Using Artificial Feeds (Trade Name: Insecta LFM, Manufactured by Nosan Corporation)]
Powdery artificial feeds (2.3 g) were added to a plastic cup (diameter: 7.5 cm, height: 4 cm) to achieve a certain thickness. Water-diluted liquid (5 ml) of the active compound prepared above having predetermined concentration was evenly poured thereto and allowed to stand until the feeds were solidified. Five of the 3rd-instar larvae of Spodoptera litura were released in respective cups, and covered. The cups were put in a temperature controlled room at 25° C. and humidity of 50 to 60%, and the number of dead larvae after 7 days was determined to calculate the pesticidal ratio. 100% pesticidal ratio means death of all the larvae, while 0% pesticidal ratio means no dead larvae.

In test [2] the test system is Cucurbit Leaf Beetle (Aulacophora femoralis). As to the kind of experiment: Cucurbit leaf beetle (Aulacophora femoralis) cucumber leaf dip test. The conditions noted are these: after 7 days. Here is the method:
as §1, §2, §3, §4
Leaves of cucumber were immersed in the test solution at the appropriate concentration, and the leaves were dried in air. The leaves were then put in a plastic cup containing sterilized black soil and five Aulacophora femoralis at second instar larvae were released in the cup. The cups were placed in a temperature-controlled chamber at 25° C. After 7 days, the number of dead larvae was counted, and thus the insecticidal activity was calculated. An insecticidal activity of 100% means that all larvae were killed, whereas an insecticidal activity of 0% means that no larva was killed.

Test [3] relates to Two-Spotted Spider Mite (Tetranychus urticae). As to the kind of experiment: Two-spotted spider mite (Tetranychus urticae) spray test on kidney bean. The conditions noted are these: after 7 days. Here is the method: as §1, §2, §3, §4
50 to 100 adult mites of Tetranychus urticae were inoculated to leaves of kidney bean at two-leaf stage planted in a pot of 6 cm in diameter. After one day, test solution at the appropriate concentration was sprayed thereon in a sufficient amount using a spray gun. After the spraying, the plant pot was placed inside a greenhouse, and after 7 days, the acaricidal activity was calculated. An acaricidal activity of 100% means that all mites were killed, whereas an acaricidal activity of 0% means that no mite was killed.

The mark [4] stands for this setting: active compound concentration 20 ppm.
Where [5] appears, read: active compound concentration 4 ppm.

For the compound `CS(=O)(=O)CC(=O)NCc1ccc(N2CCC(c3cc(Cl)c(Cl)c(Cl)c3)(C(F)(F)F)C2O)cc1C(F)(F)F` (mixture of isomers) [A1-55], the “insecticidal activity (pesticidal ratio)” value in test [1] (setting [4]) was 100%. Besides, the insecticidal activity in test [2] (setting [4]) was 100%. The acaricidal activity in test [3] (setting [4]) is 100%.
In the case of `Cc1cc(N2CCC(c3cc(Cl)c(Cl)c(Cl)c3)(C(F)(F)F)C2O)ccc1CNC(=O)C1CC1` (mixture of isomers) [A1-132], the “insecticidal activity (pesticidal ratio)” value in test [1] (setting [4]) came to 100%. In test [2] (setting [4]), this compound had an insecticidal activity of 100%. This compound registered an acaricidal activity in test [3] (setting [4]) of 100%.
Regarding `CCC(=O)NCc1ccc(N2CCC(c3cc(Cl)c(Cl)c(Cl)c3)(C(F)(F)F)C2O)cc1F` (mixture of isomers) [A1-151], the “insecticidal activity (pesticidal ratio)” value in test [1] (setting [4]) was 100%. This compound also gave an insecticidal activity in test [2] (setting [4]) of 100%. Further, the acaricidal activity in test [3] (setting [4]) came out at 100%.
Turning to `O=C(NCc1ccc(N2CCC(c3cc(Cl)c(Cl)c(Cl)c3)(C(F)(F)F)C2O)cc1F)C1CC1` (mixture of isomers) [A1-154], the “insecticidal activity (pesticidal ratio)” value in test [1] (setting [4]) worked out at 100%. Moreover, in test [2] (setting [4]), the insecticidal activity is on record as 100%. Besides, the acaricidal activity in test [3] (setting [4]) is reported as 100%.
In the case of `CC(=O)NCc1ccc(N2CCC(c3cc(Cl)c(Cl)c(Cl)c3)(C(F)(F)F)C2O)cc1Br` (mixture of isomers) [A1-161], the “insecticidal activity (pesticidal ratio)” value in test [1] (setting [4]) worked out at 100%. The compound further showed an insecticidal activity in test [2] (setting [4]) of 100%. In test [3] (setting [4]), the acaricidal activity came out at 100%.
Regarding `O=C(NCc1ccc(N2CCC(c3cc(Cl)c(Cl)c(Cl)c3)(C(F)(F)F)C2O)cc1Br)C1CC1` (mixture of isomers) [A1-165], the “insecticidal activity (pesticidal ratio)” value in test [1] (setting [4]) came to 100%. Further, the insecticidal activity in test [2] (setting [4]) came out at 100%. Besides, the acaricidal activity in test [3] (setting [4]) is 100%.
Regarding `CCC(=O)NCc1ccc(N2CCC(c3cc(C(F)(F)F)cc(C(F)(F)F)c3)(C(F)(F)F)C2O)cc1C` (mixture of isomers) [A1-184], the “insecticidal activity (pesticidal ratio)” value in test [1] (setting [4]) turned out to be 100%. Besides, the insecticidal activity in test [2] (setting [4]) is listed as 100%. The compound further yielded an acaricidal activity in test [3] (setting [4]) of 100%.
On to `Cc1cc(N2CCC(c3cc(C(F)(F)F)cc(C(F)(F)F)c3)(C(F)(F)F)C2O)ccc1CNC(=O)C1CC1` (mixture of isomers) [A1-187], for which the “insecticidal activity (pesticidal ratio)” value in test [1] (setting [4]) turned out to be 100%. The same compound came in with an insecticidal activity in test [2] (setting [4]) of 100%. Moreover, the acaricidal activity in test [3] (setting [4]) was 100%.
Regarding `COCCC(=O)NCc1ccc(N2CCC(c3cc(C(F)(F)F)cc(C(F)(F)F)c3)(C(F)(F)F)C2O)cc1C` (mixture of isomers) [A1-190], the insecticidal activity in test [2] (setting [4]) stood at 100%. For the same compound, the acaricidal activity in test [3] (setting [4]) was determined as 100%.
As to `CC(=O)NCc1ccc(N2CCC(c3cc(C(F)(F)F)cc(C(F)(F)F)c3)(C(F)(F)F)C2O)cc1F` (mixture of isomers) [A1-205], in test [1] (setting [4]), the “insecticidal activity (pesticidal ratio)” value worked out at 100%. This compound had an insecticidal activity in test [2] (setting [4]) of 100%. The compound further returned an acaricidal activity in test [3] (setting [4]) of 100%.
Regarding `CCC(=O)NCc1ccc(N2CCC(c3cc(C(F)(F)F)cc(C(F)(F)F)c3)(C(F)(F)F)C2O)cc1F` (mixture of isomers) [A1-206], in test [1] (setting [4]), the “insecticidal activity (pesticidal ratio)” value is recorded as 100%. Further, in test [2] (setting [4]), the insecticidal activity stood at 100%. The compound further gave an acaricidal activity in test [3] (setting [4]) of 100%.
As to `O=C(NCc1ccc(N2CCC(c3cc(C(F)(F)F)cc(C(F)(F)F)c3)(C(F)(F)F)C2O)cc1F)C1CC1` (mixture of isomers) [A1-209], in test [1] (setting [4]), the “insecticidal activity (pesticidal ratio)” value worked out at 100%. For the same compound, the insecticidal activity in test [2] (setting [4]) was determined as 100%. The acaricidal activity in test [3] (setting [4]) was found to be 100%.
With `CC(=O)NC(C)c1ccc(N2CCC(c3cc(Cl)c(Cl)c(Cl)c3)(C(F)(F)F)C2O)cc1` (mixture of isomers) [A2-12], the “insecticidal activity (pesticidal ratio)” value in test [1] (setting [4]) is listed as 100%. In test [3] (setting [4]), this compound returned an acaricidal activity of 100%.
As for `CC(NC(=O)C1CC1)c1ccc(N2CCC(c3cc(Cl)c(Cl)c(Cl)c3)(C(F)(F)F)C2O)cc1` (mixture of isomers) [A2-16], the “insecticidal activity (pesticidal ratio)” value in test [1] (setting [4]) was 100%. This compound displayed an insecticidal activity in test [2] (setting [4]) of 100%. The acaricidal activity in test [3] (setting [4]) is given as 100%.
Regarding `CSCC(=O)NCc1ccc(N2CCC(c3cc(C(F)(F)F)cc(C(F)(F)F)c3)(C(F)(F)F)C2O)nc1Br` (mixture of isomers) [A3-163], the “insecticidal activity (pesticidal ratio)” value in test [1] (setting [5]) and in test [1] (setting [4]) was 100% throughout. Also, the insecticidal activity in test [2] (setting [5]) and in test [2] (setting [4]) was 100% throughout. The compound also returned an acaricidal activity in test [3] (setting [4]) of 100%.
For the compound `C[S+]([O-])CC(=O)NCc1ccc(N2CCC(c3cc(C(F)(F)F)cc(C(F)(F)F)c3)(C(F)(F)F)C2O)nc1Br` (mixture of isomers) [A3-164], the “insecticidal activity (pesticidal ratio)” value in test [1] (setting [5]) and in test [1] (setting [4]) was 100% each time. For the same compound, the insecticidal activity in test [2] (setting [5]) and in test [2] (setting [4]) was 100% throughout. In addition, in test [3] (setting [4]), the acaricidal activity is given as 98%.
In test [2] (setting [4]), `CS(=O)(=O)CC(=O)NCc1ccc(N2CCC(c3cccc(C(F)(F)F)c3)(C(F)(F)F)C2O)cc1C(F)(F)F` (racemic) [A1-303] returned an insecticidal activity of 100%. Besides, the acaricidal activity in test [3] (setting [4]) amounted to 100%.
As for `O=C(CC1CC1)NCc1ccc(N2CCC(c3cccc(C(F)(F)F)c3)(C(F)(F)F)C2O)nc1C(F)(F)F` (racemic) [A3-226], the insecticidal activity in test [2] (setting [5]) and in test [2] (setting [4]) was 100% each time. Besides, the acaricidal activity in test [3] (setting [5]) and in test [3] (setting [4]) was 100% in each case.
Take `CCC(=O)NCc1ccc(N2CCC(c3cc(Cl)cc(Cl)c3)(C(F)(F)F)C2O)cc1Cl` (centres unmarked) [A1-2]: the insecticidal activity in test [2] (setting [4]) was 100%. This compound had an acaricidal activity in test [3] (setting [4]) of 100%.
On to `COCCC(=O)NCc1ccc(N2CCC(c3cc(Cl)cc(Cl)c3)(C(F)(F)F)C2O)cc1Cl` (centres unmarked) [A1-8], for which, in test [2] (setting [4]), the insecticidal activity came out at 100%. For the same compound, the acaricidal activity in test [3] (setting [4]) was 100%.
With `CC(=O)NCc1ccc(N2CCC(c3cc(Cl)c(Cl)c(Cl)c3)(C(F)(F)F)C2O)cc1Cl` (centres unmarked) [A1-12], the “insecticidal activity (pesticidal ratio)” value in test [1] (setting [4]) was 100%. The compound further returned an acaricidal activity in test [3] (setting [4]) of 100%.
As to `CCCC(=O)NCc1ccc(N2CCC(c3cc(Cl)cc(Cl)c3)(C(F)(F)F)C2O)cc1C(F)(F)F` (centres unmarked) [A1-36], the “insecticidal activity (pesticidal ratio)” value in test [1] (setting [4]) was 100%. Also, the acaricidal activity in test [3] (setting [4]) amounted to 100%.
`O=C(CC1CC1)NCc1ccc(N2CCC(c3cc(Cl)cc(Cl)c3)(C(F)(F)F)C2O)cc1C(F)(F)F` (centres unmarked) [A1-39] came in with an insecticidal activity in test [2] (setting [4]) of 100%. Besides, the acaricidal activity in test [3] (setting [4]) is recorded as 100%.
Consider `COCCC(=O)NCc1ccc(N2CCC(c3cc(Cl)cc(Cl)c3)(C(F)(F)F)C2O)cc1C(F)(F)F` (centres unmarked) [A1-41], for which the “insecticidal activity (pesticidal ratio)” value in test [1] (setting [4]) is 100%. In test [3] (setting [4]), this compound registered an acaricidal activity of 100%.
Take `CC(=O)NCc1ccc(N2CCC(c3cc(Cl)c(Cl)c(Cl)c3)(C(F)(F)F)C2O)cc1C(F)(F)F` (centres unmarked) [A1-45]: in test [1] (setting [4]), the “insecticidal activity (pesticidal ratio)” value is 100%. This compound came in with an acaricidal activity in test [3] (setting [4]) of 100%.
With `N#CCC(=O)NCc1ccc(N2CCC(c3cc(Cl)c(Cl)c(Cl)c3)(C(F)(F)F)C2O)cc1Br` (centres unmarked) [A1-525], in test [1] (setting [5]), the “insecticidal activity (pesticidal ratio)” value was 100%. The acaricidal activity in test [3] (setting [5]) is listed as 100%.
Take `CCC(=O)NCc1ccc(N2CCC(c3cc(Cl)c(Cl)c(Cl)c3)(C(F)(F)F)C2O)nc1C` (centres unmarked) [A3-79, N-({6-[2-hydroxy-3-(3,4,5-trichlorophenyl)-3-(trifluoromethyl)-pyrrolidin-1-yl]-2-methylpyridin-3-yl}methyl)propanamide]: the pest or weed control at 20 ppm is 100% in test [1] (Spodoptera litura, 168 h, active compound concentration 20 ppm, read-out: insecticidal activity (pesticidal ratio)) and 100% in test [3] (Tetranychus urticae, 168 h, active compound concentration 20 ppm, read-out: acaricidal activity).
Take `CC(C)CC(=O)NCc1ccc(N2CCC(c3cc(Cl)c(Cl)c(Cl)c3)(C(F)(F)F)C2O)nc1C(F)(F)F` (centres unmarked) [A3-288]: the “insecticidal activity (pesticidal ratio)” value in test [1] (setting [5]) and in test [1] (setting [4]) was 100% throughout. Further, the acaricidal activity in test [3] (setting [5]) and in test [3] (setting [4]) was 100% in each case.
In the case of `CCNC(=O)NCc1ccc(N2CCC(c3cc(Cl)c(Cl)c(Cl)c3)(C(F)(F)F)C2O)nc1C(F)(F)F` (centres unmarked) [A3-297], the “insecticidal activity (pesticidal ratio)” value in test [1] (setting [5]) and in test [1] (setting [4]) was 100% in each case. Also, the acaricidal activity in test [3] (setting [5]) and in test [3] (setting [4]) was 100% each time.
With `CC(=O)NCc1ccc(N2CCC(c3cc(Cl)c(F)c(Cl)c3F)(C(F)(F)F)C2O)nc1Br` (centres unmarked) [A3-322], the “insecticidal activity (pesticidal ratio)” value in test [1] (setting [5]) came to 100%. Further, the acaricidal activity in test [3] (setting [4]) is on record as 98%.
For `N#CCC(=O)NCc1ccc(N2CCC(c3cc(Cl)c(Cl)c(Cl)c3)(C(F)(F)F)C2O)nc1C(F)(F)F` (centres unmarked) [A3-421] the same measures were 100% and 100%.

These data come from patent US9375000B2, “Pesticidal arylpyrrolidines” (Bayer Intellectual Property GmbH, priority 2011, dated 2016).
